Test results as given in EP1963277B1, “FLUORINATED COMPOUNDS” (priority 2005, dated 2007).
Where two headings read alike, the source gives them in different places.

Tests used:
Type in all cases: in vivo
[1] = system: Male, Sprague-Dawley rats; assay: Maximal Electroshock Assay (rat); details: for duration of action: rat MES, judged by similar potency at 0.5h and 4h pretreatment timepoints; for Ratio ED50 4h vs. 0.5h / shift in ED50 for 0.5 vs. 4h / ED50: rat; for Ratio ED50 4h vs. 0.5h / shift in ED50 for 0.5 vs. 4h: oral; for ED50: oral pretreatment, range in parentheses
Procedure: Male, Sprague-Dawley rats (approx. 100g body weight) were prescreened for tonic seizure susceptibility prior to drug testing. […] Protection was defined by the absence of a tonic extensor seizure in the animal within 20s of application of the electrical stimulus, which typically occurred in all vehicle pretreated animals. Animals received only one electroshock on the drug test day and so separate animals were used for the 0.5h and 4h timepoints. All drugs were administered in multiple doses.

[2] = system: SNI rats; assay: Spared Nerve Injury (SNI) model, cold allodynia (acetone test); details: for duration (s) of nociceptive response, Post Admin 30 min: *** P<0.001 vs Pre-Admin.; for duration (s) of nociceptive response, Pre-Admin. 0 min: baseline before administration
Procedure: (§1) The compounds were tested for their efficacy in reducing mechanical allodynia and cold allodynia in the spared nerve injury (SNI) model of chronic neuropathic pain. In this model, the left sciatic nerve of the rat is exposed under anesthesia. Two of the branches of the sciatic nerve viz. the common peroneal and tibial nerve are ligated and sectioned. The third branch (sural nerve) is left intact. The animals were allowed a post-operative recovery period of 7 days before they were subjected to any test.
Cold allodynia was assessed by using the acetone test. In this model, 25 µl of acetone is sprayed on to the plantar surface of the hind paw. Evaporation of acetone causes cooling of the skin. The cold stimulus sets up nociceptive responses from the injured paw as evidenced by paw lifting, paw licking and grooming. The duration of the nociceptive responses is noted.
Testing of compounds was done after 21 days post-operatively. After initial basal readings were taken, the test compound or the vehicle was administered (10 ml/kg) either intraperitoneally (30 mg/kg) or orally (60 mg/kg). The readings were taken 30 min after the administration.

[3] = system: SNI rats; assay: Spared Nerve Injury (SNI) model, mechanical allodynia (Dynamic Plantar Aesthesiometer); details: for withdrawal threshold, Post Admin 30 min / withdrawal threshold, Post Admin 180 min / withdrawal threshold, Post Admin 60 min: *** P<0.001 vs Pre-Admin.; for withdrawal threshold, Pre-Admin. 0 min: baseline before administration
Procedure: as §1
The presence of mechanical allodynia was assessed using the Dynamic Plantar Aesthesiometer (Ugo Basile, Italy) which is a modified version of the Von Frey Hair test. In this, a test filament is positioned below the animal's hind paw and the unit is activated which causes the filament to move up and touch the plantar surface of the hind paw. Increasing force is applied to the paw via the filament. […] The cut-off force is set at 50 g. The tests were done on both the non-injured (control) and the injured (SNI) paw.
Testing of compounds was done after 21 days post-operatively. After initial basal readings were taken, the test compound or the vehicle was administered (10 ml/kg) either intraperitoneally (30 mg/kg) or orally (60 mg/kg). The readings were taken again 30, 60 and 180 min after the compound/vehicle administration.

[4] = system: FCA-treated rats; assay: Freund's Complete Adjuvant (FCA) model, paw edema/volume (plethysmometer); details: p.o.; for paw volume (ml), Post Admin 30 min / paw volume (ml), Post Admin 60 min: 60 mg/kg; for paw volume (ml), Pre-Admin. 0 min: group later given 60 mg/kg, baseline before administration
Procedure: (§2) Administration of FCA to the hind paw of an animal induces the formation of a localized edema and has been widely used as a model of chronic inflammatory pain. 100 µl of FCA is injected subcutaneously into the dorsal aspect of the left hind paw of the rats. The edema appears within 2 h reaches a peak by 6h and lasts for about 7 days. The effects of compounds on mechanical allodynia and paw volume were studied 2 days after FCA administration.
The edema/volume of the paw is a measure of inflammation induced by FCA. This was measured by using a plethysmometer (Ugo Basile, Italy). In this, the paw of the rat is immersed in a reservoir of water and the volume of water displaced indicates the paw volume.
After the initial basal (control) readings were taken, the test compound (60 mg/kg)/vehicle was administered orally in a volume of 10 ml/kg.

[5] = system: rats; assay: Persistent Inflammatory Pain (Formalin Model); details: Rattus norvegicus, formalin test, 30 min pretreatment; for inhibition at 30 mg/kg: ip, i.p.; for inhibition at 60 mg/kg: po, p.o.
Procedure: The formalin test is a chemically-induced tonic pain model in which injection of formalin into a hind paw elicits a biphasic nociceptive behavior. The second phase of formalin response is predominantly due to a central sensitization phenomenon. Most clinically used drugs against neuropathic pain arc active on this second phase of formalin response. Formalin test is accepted as a valid model of persistent clinical pain.
The test was done by pretreating the rats with the test compound and 30 min later (pretreatment time), 50 µl of 2.5% formalin was injected into the right hind paw of the animal. The number of paw licking and flinching episodes were scored for 60 min post-formalin injection.
The compounds were administered either intraperitoneally (30 mg/kg) or orally (60 mg/kg).

[6] = system: Male, CD-1 mice; assay: Maximal Electroshock Assay (mouse); details: for duration of action: mouse MES, judged by similar potency at 1h and 4h pretreatment timepoints; for Ratio ED50 4h vs. 1h / shift in ED50 for 1 vs. 4h / ED50: mouse; for Ratio ED50 4h vs. 1h / shift in ED50 for 1 vs. 4h: oral; for ED50: oral pretreatment, range in parentheses
Procedure: Male, CD-1 mice (20-30g body weight) were orally pretreated with test compound or vehicle control, and either at 1h or 4h post dose a maximal electroshock (45mA amplitude, 0.2s duration, 60Hz) was applied by corneal electrodes. Protection was defined by the absence of a tonic extensor seizure in the animal within 20s of application of the electrical stimulus, which typically occurred in all vehicle pretreated animals. Animals received only one electroshock and so separate animals were used for the 1h and 4h timepoints. All drugs were administered in multiple doses.

[7] = system: FCA-treated rats; assay: Freund's Complete Adjuvant (FCA) model, mechanical allodynia (modified Randall-Selitto method); details: p.o.; for paw withdrawal threshold (g), Post Admin 30 min / paw withdrawal threshold (g), Post Admin 60 min / paw withdrawal threshold (g), Post Admin 180 min: 60 mg/kg, ** P<0.01, *** P<0.001 vs Pre-Admin.; for paw withdrawal threshold (g), Pre-Admin. 0 min: group later given 60 mg/kg, baseline before administration
Procedure: as §2
The effect of the compounds in alleviating mechanical allodynia was assessed in the FCA-treated rats using the modified Randall-Selitto method (Analgesy-Meter, Ugo Basile, Italy). The animal's paw is placed on a small plinth under a cone-shaped pusher. Increasing force is applied to the paw by depressing a pedal until vocalization or withdrawal of the paw occurs. The minimum force required to elicit this vocalization/withdrawal is the paw pressure threshold. The cut-off was set at 150 g.
After the initial basal (control) readings were taken, the test compound (60 mg/kg)/vehicle was administered orally in a volume of 10 ml/kg. The paw pressure thresholds were measured 30, 60 and 180 min post administration. […] Some of the compounds were effective even at 60 and 180 min post administration.

[8] = read-out: MES oral ED50 0.5h, electroshock 0.5h post dose
[9] = read-out: MES oral ED50 4h, electroshock 4h post dose
[10] = group later given 30 mg/kg, i.p.
[11] = group later given 60 mg/kg, p.o.
[12] = *** P<0.001, read-out: %Inhibition Phase I
[13] = *** P<0.001, read-out: %Inhibition Phase II
[14] = ** P<0.01, *** P<0.001, read-out: %Inhibition Phase II
[15] = electroshock 1h post dose, blockade of tonic extensor seizure, read-out: MES oral ED50 1h

| Structure (SMILES) | duration of action [1] | Ratio ED50 4h vs. 0.5h [1] | shift in ED50 for 0.5 vs. 4h [1] | ED50 [1, 8] | ED50 [1, 9] | duration (s) of nociceptive response, Post Admin 30 min ([2]; 30 mg/kg, i.p.) | duration (s) of nociceptive response, Post Admin 30 min ([2]; 60 mg/kg, p.o.) | duration (s) of nociceptive response, Pre-Admin. 0 min [2, 10] | duration (s) of nociceptive response, Pre-Admin. 0 min [2, 11] | withdrawal threshold, Post Admin 30 min ([3]; 30 mg/kg, i.p.) | withdrawal threshold, Post Admin 180 min ([3]; 30 mg/kg, i.p.) | withdrawal threshold, Post Admin 30 min ([3]; 60 mg/kg, p.o.) | withdrawal threshold, Post Admin 60 min ([3]; 60 mg/kg, p.o.) | withdrawal threshold, Post Admin 180 min ([3]; 60 mg/kg, p.o.) | withdrawal threshold, Pre-Admin. 0 min [3, 10] | withdrawal threshold, Pre-Admin. 0 min [3, 11] | paw volume (ml), Post Admin 30 min [4] | paw volume (ml), Post Admin 60 min [4] | paw volume (ml), Pre-Admin. 0 min [4] | inhibition at 30 mg/kg [5, 12] | further results |
| --- | --- | --- | --- | --- | --- | --- | --- | --- | --- | --- | --- | --- | --- | --- | --- | --- | --- | --- | --- | --- | --- |
| CC(=O)NC(COC(F)F)C(=O)NCc1ccccc1 (centres unmarked) [Compound 3, 2-(Acetylamino)-N-benzyl-3-(difluoromethoxy)propanamide] | longer than Lacosamide | 1.4 | 1 to 1.4 fold | 3 mg/kg | 4.2 mg/kg | 4.3 ± 1.6*** s | 17.2 ± 6.2*** s | 45.8 ± 9.4 s | 70.7 ± 18.9 s | 22.5 ± 2.1*** g | 14.1 ± 1.6*** g | 19.4 ± 2.3*** g | 20.6 ± 3.1*** g | 10.8 ± 1.8 g | 7.5 ± 1.4 g | 9.7 ± 2.5 g | 2.3 ± 0.1 mL | 2.3 ± .01 mL | 2.3 ± 0.0 mL | 87.9 ± 12.1% | inhibition at 30 mg/kg [5, 13]: 90.2 ± 6.5%; inhibition at 60 mg/kg [5, 14]: 46.1 ± 8.7%; inhibition at 60 mg/kg ([5]; read-out: %Inhibition Phase I): 21.4 ± 10.2%; duration of action [6]: longer than Lacosamide; Ratio ED50 4h vs. 1h [6]: 3.5; shift in ED50 for 1 vs. 4h [6]: 1 to 3.5 fold; ED50 [6, 15]: 5.7 mg/kg; ED50 [6, 9]: 20 mg/kg; paw withdrawal threshold (g), Post Admin 30 min [7]: 57.8 ± 4.9** g; paw withdrawal threshold (g), Post Admin 60 min [7]: 46.7 ± 3.8 g; paw withdrawal threshold (g), Post Admin 180 min [7]: 37.8 ± 5.4 g; paw withdrawal threshold (g), Pre-Admin. 0 min [7]: 32.8 ± 6.5 g |
| CC(=O)NC(COC(F)F)C(=O)NCc1ccc(F)cc1 (centres unmarked) [Compound 4, 2-(Acetylamino)-3-(difluoromethoxy)-N-(4-fluoro-benzyl)propanamide] | longer than Lacosamide | 1.0 | 1 to 1.4 fold | 3.3 mg/kg | 3.4 mg/kg | 3.1 ± 2.1*** s | 21.9 ± 6.4*** s | 48.2 ± 10.1 s | 56.2 ± 8.4 s | 16.7 ± 1.4*** g | 13.2 ± 1.0*** g | 15.4 ± 1.1*** g | 16.2 ± 1.7*** g | 7.9 ± 0.6 g | 6.7 ± 0.7 g | 7.5 ± 0.5 g | 2.08 ± 0.0 mL | 2.11 ± 0.0 mL | 2.01 ± 0.0 mL | 94.7 ± 5.3% | withdrawal threshold, Post Admin 60 min ([3]; 30 mg/kg, i.p.): 15.0 ± 0.8*** g; inhibition at 30 mg/kg [5, 13]: 81.6 ± 10%; inhibition at 60 mg/kg [5, 14]: 41.9 ± 9%; inhibition at 60 mg/kg ([5]; read-out: %Inhibition Phase I): 7.6 ± 6.7%; duration of action [6]: longer than Lacosamide; Ratio ED50 4h vs. 1h [6]: 1.0; shift in ED50 for 1 vs. 4h [6]: 1 to 3.5 fold; ED50 [6, 15]: 9.8 mg/kg; ED50 [6, 9]: 9.8 mg/kg; paw withdrawal threshold (g), Post Admin 30 min [7]: 58.3 ± 4.8** g; paw withdrawal threshold (g), Post Admin 60 min [7]: 49.4 ± 6.4** g; paw withdrawal threshold (g), Post Admin 180 min [7]: 51.1 ± 8.9** g; paw withdrawal threshold (g), Pre-Admin. 0 min [7]: 33.9 ± 4.2 g |
